Experimental findings from a melting point compilation (Tetko et al.; mined from patent text by program, amines drawn as free bases though some values may be those of a salt) are described below.

A value given as a limit tells only on which side of the number the result lay.

As a reminder, the melting point is the temperature, or range, at which the solid turns liquid. Take `O=C1C(c2ccc(O)cc2)=C(c2ccccc2)c2cc(O)cc(O)c21`: the melting point fell in the range of 128 to 130 °C.
The figure for `N#Cc1ccc(NC(=S)Nc2ccc(NNC=O)cc2)cc1` is 180 to 182 °C.
The same measure for `COC(=O)c1ccc(NS(C)(=O)=O)c(C=NO)c1`: 160 °C; for `CCOC(=O)CC1N(c2c(C)cccc2C)C(=N)C(C)N1c1c(C)cccc1C` (configuration not stated): 116 to 119 °C; for `COc1ccc(-c2cc(NCc3ccccc3)nnc2-c2ccc(OC)cc2)cc1`: 125 to 126 °C.
The same measure for `CCC(C)(C)NC(=O)c1cnc2cccc(C)n2c1=O`: 87 to 89 °C; for `CC(C)OC(=O)NNc1n[nH]c2cc(Cl)ccc12`: 184 to 185 °C.
Regarding `CCN(CC)CC(C)N1c2ccccc2Sc2ccc(C(=S)NCCC(C)C)cc21` (racemic), the melting point stood at 80 °C.
The figure for `Cc1cccc(C2=NCSC2(c2ccnc(C)c2)N2CCOC2=O)c1` (configuration not stated) is 80 to 82 °C; for `CCC(Cc1ccccc1)(NC(=O)CN)c1ccccc1` (configuration not stated) it is 108 to 110 °C.
The same measure for `Cc1ccc(S(=O)(=O)n2cc(Br)c(C)c2C=O)cc1`: 152 to 155 °C.
Compound `Cc1nc2cc(NC(=O)c3cc4cccnc4n3Cc3cccc(F)c3)ccc2n1C` returned a melting point of 242 to 244 °C.
With `COc1cc(C(=O)O)ccc1CC(=O)Nc1cccc(/C=C/c2nc(C3CCC3)cs2)c1`, the melting point was 242 to 243 °C.
The figure for `Nc1ccc(Sc2cc(Cl)cc(Cl)c2)c(Cl)c1` is 157 to 160 °C; for `COc1ccc(CC(=O)Nc2c(C)c(C)c3c(c2C)C(c2ccc(C(C)C)cc2)C(C)(C)O3)cc1` (configuration not stated) it is 171 to 173 °C.
The compound `COc1cccc(C2(Cl)C(=O)Nc3ccc(Cl)cc32)c1` (configuration not stated) displayed a melting point of 170 °C.
The same measure for `Cc1cc(-n2ccc(OCCc3ccccc3)cc2=O)sc1C(=O)NCc1ccccc1`: 159 to 160 °C; for `CC(C)[Si](C(C)C)(C(C)C)N1C=C2C=C(C=O)OCC3=C2C(=C1)CC3N(C)C` (configuration not stated): 104 to 106 °C; for `O=[N+]([O-])c1ccc2c(c1)OC(CO)(CO)O2`: 111 to 113 °C.
Consider `CNc1ccc(Cl)c(-c2cc(=O)c3c(O)cc(O)c(C4CCN(C)C4CO)c3o2)c1` (configuration not stated), for which the melting point was 208 to 210 °C.
The figure for `NS(=O)(=O)c1cc(C(=O)Nn2cnc3cc(C(F)(F)F)ccc32)ccc1Cl` is 164 °C.
In turn, `COc1ccc(C2=NN(C(c3ccccc3)c3ccccc3)C(=O)[C@H]3CCCC[C@@H]23)cc1OC` (relative stereo) returned a melting point of 133 to 135 °C.
The figure for `Cc1cc(CN2CCN(C(C)C)CC2)cc2c1Cc1c(-c3ccsc3)n[nH]c1-2` is 113 to 114 °C; for `Cc1cnc2cc(NS(=O)(=O)c3cccc(Cl)c3C)ccc2n1` it is 159 °C.
On to `CCOC(=O)C1=C(C)Nc2n[nH]cc2C1c1ccccc1C(F)(F)F` (configuration not stated), for which the melting point fell in the range of 259 to 262 °C.
As to `Cc1cnc2c(S(=O)(=O)N[C@@H](CCCc3cn(C(c4ccccc4)(c4ccccc4)c4ccccc4)cn3)C(=O)OC(C)(C)C)cccc2c1`, the melting point was 56 °C.
In turn, `CC(C)(C)c1cc(C(=O)c2ccc(O)cc2O)cc(C(C)(C)C)c1O` displayed a melting point of 192 to 193 °C.
The figure for `Cc1cccc(NC(=O)NC2CN(CC(=O)N3CC4CCC(CC4)C3)c3c(C)cccc3C(c3ccccc3F)=N2)c1` (configuration not stated) is 246 to 247 °C.
The same measure for `Cc1oc(-c2ccccc2)nc1CCOc1ccc(C[C@H](NC(=O)C=Cc2ccc(F)cc2F)C(=O)O)cc1`: 199 to 201 °C.
The same measure for `CC(C)C[C@H](NC(=O)OCc1ccccn1)C(=O)N[C@@H](C(C)C)[C@H](O)c1c(-c2ccccc2)c1=O`: 52 to 59 °C; for `CCOC(=O)c1ccsc1NC(=O)NCCN1CCN(c2ccccc2)CC1`: 117 to 120 °C; for `CN(C)CC(O)Cn1c2ccccc2c2c3c(c4c5ccccc5n(C)c4c21)C(=O)NC3=O` (configuration not stated): 130 to 135 °C.
`Cc1ccc(-c2nc(N)n3nc(-c4ccco4)nc3n2)cc1` yielded a melting point above 275 °C.
The figure for `Cc1nc2c3c(ccc2[nH]1)[C@@H](O)[C@H](O)[C@@H](c1ccccc1)O3` is 163 °C; for `O=C(Nc1cnc2c(c1)CCN2)c1cc2cc(F)ccc2n1Cc1cccc(F)c1` it is 230 to 232 °C.
In the case of `CCOC(=O)c1cnn(-c2ccc(OCC(C)(C)C)c(C#N)c2)c1Cl`, the melting point lay in the range of 90 to 92 °C.
The figure for `Nc1nc2[nH]c(CCCCc3ccc(C(=O)N[C@@H](CCC(=O)O)C(=O)O)o3)cc2c(=O)[nH]1` is 174 to 175 °C; for `CC(=O)SCC(Cc1ccccc1)C(=O)Nc1ccc(O)c(C(=O)O)c1` (configuration not stated) it is 185 to 188 °C.
Compound `CCc1[nH]n(C2CCCC2)c2nc(CN3CCc4ccccc4C3)nc(=O)c1-2` registered a melting point of 149 to 151 °C.
The figure for `CC(C)(CCl)C(=O)NCc1ccc(Cl)cc1` is 97 to 98 °C; for `O=C(Nc1ccccc1)ONC1=Nc2ccc(Cl)cc2C(c2ccccc2F)=NC1` it is 126 to 128 °C.
The same measure for `O=C1c2ccccc2C(=O)c2c(Nc3ccc(O)cc3)ccc(Nc3ccc(O)cc3)c21`: 340 to 342 °C; for `O=C(O)c1cnc(-c2nnn[nH]2)cc1C1CCCCC1`: 278 °C; for `O=C1C=CCC(CCc2ccc(Cl)cc2Cl)O1` (configuration not stated): 69 to 70 °C.
The figure for `CC(=O)OC1C(C)=C(C)C(=O)N1c1ccc(Cl)c(Cl)c1` (configuration not stated) is 109 to 110 °C; for `CCN1CCCC1CNC(=O)c1cc(S(N)(=O)=O)cc2c1OCCO2` (configuration not stated) it is 160 to 161 °C.
Consider `CS(=O)(=O)c1ccc(-n2nc(C(F)(F)F)cc2-c2ccc(-c3nccs3)cc2)cc1`, for which the melting point is 206 to 207 °C.
As to `COc1cc(C=Cc2conc2C)cc(Br)c1O`, the melting point is 178 to 180 °C.
The same measure for `COC(=O)C1=C(C)NC(C)=C(C(=O)OCC2CCCO2)C1c1ccccc1Cl` (configuration not stated): 165 to 167 °C; for `CS(=O)(=O)c1cccc(NC(=O)c2cnn3c(C(F)F)cc(-c4ccc(C(F)(F)F)c(Cl)c4)nc23)c1`: 228 °C; for `COc1ccccc1-c1ccc2ccc(N)nc2n1`: 182 °C.
The figure for `CSC(SC)=C(C(=O)c1ccc(C(F)(F)F)cc1S(C)(=O)=O)C(=O)C1CC1` is 137 to 139 °C; for `O=C(OCC1OC(n2cc(F)c(=O)[nH]c2=O)CC1OCc1ccccc1)c1cccnc1` (configuration not stated) it is 130 to 132 °C; for `CC(=CC(N)[C@@H]1CN(c2ccc(-c3cccnc3)cn2)C(=O)O1)[N+](=O)[O-]` (some centres not stated) it is 207 °C.
As for `O=C(Nc1ccc(C(F)(F)F)cc1)C1CC(c2ccc(F)cc2)N(c2ccc(Cl)cc2)N1` (configuration not stated), the melting point was in the range of 50 to 55 °C.
The figure for `CC(COc1ccc(O)c(C(N)=O)c1)NCC(O)c1ccccn1` (configuration not stated) is 147 to 165 °C; for `CCOC(=O)N1CCN(c2ccc3nc4[nH]c(=O)[nH]c4cc3c2)CC1` it is above 300 °C.
In turn, `O=C(O)c1ccc(-n2ccc3ccccc32)cc1` displayed a melting point of 222 to 224 °C.
The figure for `CCNc1c(SC(F)(F)F)c(C)nn1-c1c(Cl)cc(C(F)(F)F)cc1Cl` is 53 to 54 °C.
Take `COc1ccc(C=Cc2cc3cc(Br)ccc3o2)cc1`: the melting point lay within 190 to 194 °C.
Turning to `CCN(CC)S(=O)(=O)c1cc(C(=O)CCl)ccc1Cl`, the melting point was 63 to 65 °C.
On to `O=C(CCc1nnc(-c2ccc3c(c2)CCO3)o1)c1cccs1`, for which the melting point lay within 151 to 152 °C.
The figure for `Cc1c(NC(=O)c2ccc(-c3ccc(F)cc3)cc2)ccc2cc(CN3C(C)CCCC3C)cnc12` (configuration not stated) is 167 to 168 °C; for `O=C(O)c1cccc2sc3ccccc3c(=O)c12` it is 269 to 270 °C; for `NNc1ccc(S(N)(=O)=O)cc1` it is 169 to 171 °C.
Turning to `CCOC(=O)C1=NN(c2ccc([N+](=O)[O-])cc2)C2(N3CCCC3)CCCC12` (configuration not stated), the melting point was 118 °C.
The same measure for `COC(=O)c1ccnc(N2CCN(Cc3ccc(F)cc3)C2=O)c1`: 119 to 121 °C.
The figure for `CNc1ncn(-c2ccccc2C)c(=O)n1` is 192 °C; for `NC(=O)CCCCn1cnc(NC(N)=NCC(F)(F)F)n1` it is 162 to 164 °C; for `CCCCNC(=O)Oc1ccc2c(N3CCN(CCCC(=O)c4ccc(F)cc4)CC3)noc2c1` it is 137 to 141 °C.
The figure for `CSC(C(=O)c1cc(-c2ccccc2)on1)N(C)C` (configuration not stated) is 98 to 99.5 °C.
Take `O=C(Nc1ccc2cc(CN3CCCC3)ccc2c1)N1CCC(c2ccc(F)cc2)CC1`: the melting point lay in the range of 209 to 211 °C.
The figure for `NC(=O)NCCSc1ccc2nccn2n1` is 216 to 217 °C; for `Cc1cnc2[nH]cc(/C=C3\N=C(N(C)CC(C)C)NC3=O)c2c1` it is 287 to 289 °C; for `COc1cc(OC)c2c(=O)[nH]c(-c3ccc4[nH]nc(CO)c4c3)nc2c1` it is 264 to 266 °C.
In turn, `CCCCc1nc2c(N)nc(C)c(C)c2n1CCCCCS(N)(=O)=O` came in with a melting point of 130 °C.
Consider `Cc1ccsc1C(=O)Cc1ccc(C(F)(F)F)cc1[N+](=O)[O-]`, for which the melting point lay in the range of 120 to 122 °C.
Compound `CCOC(=O)c1ncn2c1CN=C(c1ccccc1)c1cc(Br)ccc1-2` returned a melting point of 210 to 212 °C.
In turn, `O=C(O)CCCCc1c[nH]c2ccccc12` yielded a melting point of 80 to 83 °C.
The same measure for `CC(C)(C)OC(=O)NCC(=O)SCC(Cc1ccccc1)C(=O)Nc1cccc(C(=O)O)c1` (configuration not stated): 76 to 80 °C; for `COC(=O)c1ccc(OC)c2oc(C)cc12`: 127 to 129 °C.
The compound `COC(=O)c1nn(-c2ccccc2F)cc(OC)c1=O` registered a melting point of 155 to 157 °C.
The same measure for `CCCCCCCNC(=NC#N)Nc1cccnc1`: 90 to 91 °C; for `COC1(c2cc(F)cc(Sc3ccc(C(=O)C(F)(F)F)cc3)c2)CCOCC1`: 63 °C.
The figure for `CC(C)NC(=O)N1CCc2[nH]cnc2C1` is 190 °C; for `Cc1ccc(S(=O)(=O)NC(=O)NC2N=C(c3ccccc3)c3ccccc3N(C)C2=O)cc1` (configuration not stated) it is 244 to 246 °C; for `C=CCn1c(C)nc2c3c(c(C(=O)OC)cc21)C(=O)CC1(Cc2ccccc2C1)N3` it is 216 to 217 °C.
